From patent US4564627A, “Feed composition” (Nihon Nohyaku Co., Ltd., priority 1982, dated 1986)
“Also recorded” adds a separate entry of the source.

What was measured:
LD50 mouse (male) = conditions: in vivo
From the text: Examples of the compounds represented by the general formula [1] according to this invention and their toxicities are shown below.

[1] = Growth of body weight of broilers (Test Example 1); format: in vivo, "A A Fuji" broilers (chicken); conditions: for Body weight at week age 0: week age 0 (before addition); for Body weight at week age 3: week age 3 (start of addition)
Method: (§1) To each group consisting of 30 "A A Fuji" broilers (15 male, 15 female), a commercially available early period broiler feed (crumble form, Cp 22%, ME 3,030 kcal/kg) was given from beginning of feeding to 4 week age, and a latter period broiler feed (mash form, Cp 18%, ME 3,030 kcal/kg) was given ad libitum from 4 week age to 10 week age. The test period was from Oct. 10, 1981 through Dec. 20, 1981. Addition of test compounds to the above feeds in predetermined concentrations was conducted from 3 week age through the completion of the test.
(1) Growth of body weight
[…] All broilers were measured and an average body weight was calculated for each group.

[2] = Feed consumption of broilers (Test Example 1); format: in vivo, "A A Fuji" broilers (chicken); conditions: 2,400 ppm in feed
Method: as §1
Feed consumption was calculated by weighing feeds left at the time of body weight measurement, and therefrom feed conversion ratio was calculated.

broilers [3] = experiment: Abdominal fat deposit of broilers (Test Example 1); format: in vivo, "A A Fuji" broilers (chicken)
Method: as §1
(§2) Five broilers at 6 week age, five broilers at 8 week age and ten broilers at 10 week age were taken out from each group and slaughtered. Immediately after slaughtering, they were cooled in water for about 2 hr and the body weight of each slaughtered broiler was measured and subsequently they were stored at 2° C. for about 20 hr. Then, in order to measure abdominal fat, mesentary fat was removed and fat adhered to from gizzard to proventriculus was collected and weighed as the weight of abdominal fat. This weight was divided by body weight to obtain abdominal fat deposit per 100 g of body weight. Further, liver fat was also collected and weighed. A liver under freeze storage was cut into slices in a total quantity of 2 to 3 g. The slices were placed in a cylindrical filter paper and weighed. Then, these slices were dried for 3 hr in a hot air drier kept at 90° C. and subsequently extracted for 17 hr with ethyl ether in a Soxhlet fat extractor. After drying the extract for 3 hr at 60° C. and weighing the residue, crude fat content in liver was calculated.

broilers [4] = experiment: Crude fat content in liver of broilers (Test Example 1); format: in vivo, "A A Fuji" broilers (chicken)
Method: as §1, §2

laying hens [5] = experiment: Thickness of eggshell of laying hens (Test Example 2); format: in vivo
From the text: (§3) As test hens, commercially available laying hens of 480 day age were used. The control group fed with a feed not containing any compound of this invention consisted of 100 laying hens, and each test group fed with a feed containing a compound of this invention consisted of 10 laying hens. The test was repeated twice. The test period was 16 weeks from Nov. 17, 1981 to Mar. 8, 1982. The first 4 weeks from the start was a preliminary observation period, during which each group was controlled so as to give the same egg production rate. As the feed, a commercially available feed for laying hens (Cp 16% or above, ME 2,800 kcal/kg or above) was used. From the 5th week, predetermined quantities of test compounds were uniformly added to this feed and the resulting blended feeds were given to test groups. Feeds and water were given ad libitum. Constant lighting was made for 14 hr a day. Egg production rate was daily recorded for each individual hen and egg weight for each test group. Feed intake quantity was obtained by calculating on every other week a difference between quantity fed and quantity left. For examining egg quality, strength of eggshell and thickness of eggshell were measured for all normal eggs laid during a period of the previous day of measurement to 3 P.M. of the measurement day. Strength of eggshell was measured by a FHK eggshell strength tester model FN-597, and thickness of eggshell by a dial thickness gauge.

laying hens [6] = experiment: Strength of eggshell of laying hens (Test Example 2); format: in vivo
From the text: as §3

[7] = Feed intake of laying hens (Test Example 2); format: in vivo; conditions: 2,500 ppm in feed
From the text: as §3, with “Constant lighting was made for 14 hr a day.” left out

## CC(C)OC(=O)C(C(=O)OC(C)C)=C1SCC(O)S1 (stereo not shown) [compound 8]
LD50 mouse (male)
  LD50: > 6590 mg/kg

## CC(C)OC(=O)C(C(=O)OC(C)C)=C1SCS1 [compound 1]
LD50 mouse (male)
  LD50: > 5000 mg/kg

## CC(C)OC(=O)C(C(=O)OC(C)C)=C1SC=CS1 [compound 4]
LD50 mouse (male); unit printed kg/mg
  LD50: 3120 mg/kg
[1]; broilers, 2,400 ppm in feed
  Growth of body weight (in words): badly affected; also recorded: lower growth of body weight
[1]; 200 ppm in feed from 3 week age
  Body weight at week age 0: 41 g
[1]; 400 ppm in feed from 3 week age
  Body weight at week age 0: 41 g
[1]; 800 ppm in feed from 3 week age
  Body weight at week age 0: 41 g
[1]; 2,400 ppm in feed from 3 week age
  Body weight at week age 0: 41 g
[1]; 200 ppm in feed
  Body weight at week age 3: 620 g
  Body weight at week age 4: 981 g
  Body weight at week age 5: 1,341 g
  Body weight at week age 6: 1,661 g
  Body weight at week age 7: 2,090 g
  Body weight at week age 8: 2,502 g
  Body weight at week age 9: 2,860 g
  Body weight at week age 10: 3,105 g
[1]; 400 ppm in feed
  Body weight at week age 3: 626 g
  Body weight at week age 4: 985 g
  Body weight at week age 5: 1,346 g
  Body weight at week age 6: 1,667 g
  Body weight at week age 7: 2,102 g
  Body weight at week age 8: 2,512 g
  Body weight at week age 9: 2,874 g
  Body weight at week age 10: 3,115 g
[1]; 800 ppm in feed
  Body weight at week age 3: 625 g
  Body weight at week age 4: 984 g
  Body weight at week age 5: 1,330 g
  Body weight at week age 6: 1,662 g
  Body weight at week age 7: 2,065 g
  Body weight at week age 8: 2,496 g
  Body weight at week age 9: 2,871 g
  Body weight at week age 10: 3,098 g
[1]; 2,400 ppm in feed
  Body weight at week age 3: 621 g
  Body weight at week age 4: 974 g
  Body weight at week age 5: 1,316 g
  Body weight at week age 6: 1,640 g
  Body weight at week age 7: 2,003 g
  Body weight at week age 8: 2,388 g
  Body weight at week age 9: 2,796 g
  Body weight at week age 10: 2,984 g
[2]
  Feed consumption (in words): significant reduction of feed consumption
Broilers [3]; 6w, 200 ppm in feed
  Abdominal fat deposit: 3.20 g/100 g
Broilers [3]; 6w, 400 ppm in feed
  Abdominal fat deposit: 3.02 g/100 g
Broilers [3]; 6w, 800 ppm in feed
  Abdominal fat deposit: 2.93 g/100 g
Broilers [3]; 6w, 2,400 ppm in feed
  Abdominal fat deposit: 2.92 g/100 g
Broilers [3]; 8w, 200 ppm in feed
  Abdominal fat deposit: 3.55 g/100 g
Broilers [3]; 8w, 400 ppm in feed
  Abdominal fat deposit: 3.18 g/100 g
Broilers [3]; 8w, 800 ppm in feed
  Abdominal fat deposit: 3.22 g/100 g
Broilers [3]; 8w, 2,400 ppm in feed
  Abdominal fat deposit: 3.15 g/100 g
Broilers [3]; 10w, 200 ppm in feed
  Abdominal fat deposit: 3.83 g/100 g
Broilers [3]; 10w, 400 ppm in feed
  Abdominal fat deposit: 3.78 g/100 g
Broilers [3]; 10w, 800 ppm in feed
  Abdominal fat deposit: 3.37 g/100 g
Broilers [3]; 10w, 2,400 ppm in feed
  Abdominal fat deposit: 3.22 g/100 g
Broilers [4]; 6w, 200 ppm in feed
  Crude fat content in liver: 2.20%
Broilers [4]; 6w, 400 ppm in feed
  Crude fat content in liver: 2.06%
Broilers [4]; 6w, 800 ppm in feed
  Crude fat content in liver: 2.17%
Broilers [4]; 6w, 2,400 ppm in feed
  Crude fat content in liver: 2.11%
Broilers [4]; 8w, 200 ppm in feed
  Crude fat content in liver: 5.23%
Broilers [4]; 8w, 400 ppm in feed
  Crude fat content in liver: 5.02%
Broilers [4]; 8w, 800 ppm in feed
  Crude fat content in liver: 4.62%
Broilers [4]; 8w, 2,400 ppm in feed
  Crude fat content in liver: 4.04%
Broilers [4]; 10w, 200 ppm in feed
  Crude fat content in liver: 4.47%
Broilers [4]; 10w, 400 ppm in feed
  Crude fat content in liver: 4.29%
Broilers [4]; 10w, 800 ppm in feed
  Crude fat content in liver: 4.25%
Broilers [4]; 10w, 2,400 ppm in feed
  Crude fat content in liver: 3.96%
Laying hens [5]; 509th day, 100 ppm in feed
  Eggshell thickness: 0.345 mm
Laying hens [5]; 509th day, 500 ppm in feed
  Eggshell thickness: 0.342 mm
Laying hens [5]; 509th day, 2,500 ppm in feed
  Eggshell thickness: 0.336 mm
Laying hens [5]; 555th day, 100 ppm in feed
  Eggshell thickness: 0.343 mm
Laying hens [5]; 555th day, 500 ppm in feed
  Eggshell thickness: 0.350 mm
Laying hens [5]; 555th day, 2,500 ppm in feed
  Eggshell thickness: 0.347 mm
Laying hens [5]; 612th day, 100 ppm in feed
  Eggshell thickness: 0.342 mm
Laying hens [5]; 612th day, 500 ppm in feed
  Eggshell thickness: 0.345 mm
Laying hens [5]; 612th day, 2,500 ppm in feed
  Eggshell thickness: 0.344 mm
Laying hens [6]; 509th day, 100 ppm in feed
  Eggshell strength: 2.47 kg
Laying hens [6]; 509th day, 500 ppm in feed
  Eggshell strength: 2.46 kg
Laying hens [6]; 509th day, 2,500 ppm in feed
  Eggshell strength: 2.44 kg
Laying hens [6]; 555th day, 100 ppm in feed
  Eggshell strength: 2.88 kg
Laying hens [6]; 555th day, 500 ppm in feed
  Eggshell strength: 2.93 kg
Laying hens [6]; 555th day, 2,500 ppm in feed
  Eggshell strength: 2.97 kg
Laying hens [6]; 612th day, 100 ppm in feed
  Eggshell strength: 2.97 kg
Laying hens [6]; 612th day, 500 ppm in feed
  Eggshell strength: 3.02 kg
Laying hens [6]; 612th day, 2,500 ppm in feed
  Eggshell strength: 3.08 kg
[7]
  Feed intake (in words): a lower value was seen with significance

## CCOC(=O)C(C(=O)OCC)=C1SC=CS1 [compound 5]
LD50 mouse (male)
  LD50: 4900 mg/kg

## CC(C)OC(=O)C(C(=O)OC(C)C)=C1SC(C(=O)O)S1 (stereo not shown)
LD50 mouse (male)
  LD50: > 5000 mg/kg

## CC(C)OC(=O)C(C(=O)OC(C)C)=C1SCC[S+]1[O-] (stereo not shown) [compound 7]
LD50 mouse (male)
  LD50: > 6000 mg/kg

## CCOC(=O)C(C(=O)OC(C)C)=C1SCS1 [compound 2]
LD50 mouse (male)
  LD50: > 5000 mg/kg
